In US10596127B2, “Composition for reducing the frequency of urination, method of making and use thereof” (WELLESLEY PHARMACEUTICALS, LLC, priority 2013, dated 2020):

Tests used:
[1] = system: IL-6 secretion by normal human bladder smooth muscle cells; assay: IL-6 ELISA of normal human bladder smooth muscle cell supernatants; format: cell-based; conditions: for IL-6 (pg/ml) Subject 2: LPS alone 4383; for IL-6 (pg/ml) Subject 1: LPS alone 4838, mean of duplicates
[2] = system: expression of co-stimulatory molecules by Raw 264 macrophage cells; assay: Flow cytometry of co-stimulatory molecules CD40 and CD80 on macrophages treated with analgesic, with or without LPS; format: cell-based, Murine; conditions: for effect on basal expression of co-stimulatory molecules CD40 and CD80 by macrophages: 5 × 10^5, 5 × 10^4, 5 × 10^3, 5 × 10^2, 50 and 5 nM
Procedure: Murine RAW264.7 or J774 macrophage cells (obtained from ATCC) were used in this study. Cells were maintained in a culture medium containing RPMI 1640 supplemented with 10% fetal bovine serum (FBS), 15 mM HEPES, 2 mM L-glutamine, 100 U/ml penicillin, and 100 μg/ml of streptomycin. Cells were cultured at 37° C. in a 5% CO2 atmosphere and split (passages) once a week.
RAW264.7 macrophage cells were seeded in 96-well plates at a cell density of 1.5×10^5 cells per well in 100 μl of the culture medium. […] Briefly, the analgesics were dissolved in FBS-free culture medium (i.e., RPMI 1640 supplemented with 15 mM HEPES, 2 mM L-glutamine, 100 U/ml penicillin, and 100 μg/ml of streptomycin), and diluted to desired concentrations by serial dilution with the same medium. For cells treated with analgesic in the absence of LPS, 50 μl of analgesic solution and 50 μl of FBS-free culture medium were added to each well. For cells treated with analgesic in the presence of LPS, 50 μl of analgesic solution and 50 μl of LPS (from Salmonella typhimurium) in FBS-free culture medium were added to each well. All conditions were tested in duplicates.
After 24 or 48 hours of culture, 150 μl of culture supernatants were collected, spun down for 2 min at 8,000 rpm at 4° C. to remove cells and debris and stored at −70° C. for analysis of cytokine responses by ELISA. The cells were collected and washed by centrifugation (5 min at 1,500 rpm at 4° C.) in 500 μl of Phosphate buffer (PBS). Half of the cells were then snap frozen in liquid nitrogen and stored at −70° C. The remaining cells were stained with fluorescent monoclonal antibodies and analyzed by flow cytometry.
For flow cytometry analysis, macrophages were diluted in 100 μl of FACS buffer (phosphate buffered saline (PBS) with 2% bovine serum albumin (BSA) and 0.01% NaN3) and stained 30 min at 4° C. by addition of FITC-conjugated anti-CD40, PE-conjugated anti-CD80, PE-conjugated anti-CD86 antibody, anti MHC class II (I-A^d) PE (BD Bioscience). Cells were then washed by centrifugation (5 min at 1,500 rpm at 4° C.) in 300 μl of FACS buffer. After a second wash, cells were re-suspended in 200 μl of FACS buffer and the percentage of cells expressing a given marker (single positive), or a combination of markers (double positive) were analyzed with the aid of an Accuri C6 flow cytometer (BD Biosciences).

[3] = system: TNFα secretion by normal human bladder smooth muscle cells; assay: TNFα ELISA of normal human bladder smooth muscle cell supernatants; format: cell-based; conditions: for TNFα (pg/ml) Subject 2 / TNFα (pg/ml) Subject 1: Carbachol 10^−3 M plus analgesic 50 μM; for TNFα (pg/ml) Subject 2: carbachol alone 286, unstimulated <5; for TNFα (pg/ml) Subject 1: carbachol alone 350, unstimulated <5, mean of duplicates; for effect on the effect of carbachol and LPS on TNFα responses: LPS-induced responses: analgesic at either 5 μM or 50 μM
Procedure: Culture supernatants were subjected to cytokine-specific ELISA to determine IL-1β, IL-6 and TNF-α responses in cultures of macrophages treated with analgesic, LPS alone or a combination of LPS and analgesic. The assays were performed on Nunc MaxiSorp Immunoplates (Nunc) coated overnight with 100 μl of anti-mouse IL-6, TNF-α mAbs (BD Biosciences) or IL-1β mAb (R&D Systems) in 0.1 M sodium bicarbonate buffer (pH 9.5). After two washes with PBS (200 μl per well), 200 μl of PBS 3% BSA were added in each well (blocking) and the plates incubated for 2 hours at room temperature. Plates were washed again two times by addition of 200 μl per well, 100 μl of cytokine standards and serial dilutions of culture supernatants were added in duplicate and the plates were incubated overnight at 4° C. Finally, the plates were washed twice and incubated with 100 μl of secondary biotinylated anti-mouse IL-6, TNFα mAbs (BD Biosciences) or IL-1β (R&D Systems) followed by peroxidase-labelled goat anti-biotin mAb (Vector Laboratories). The colorimetric reaction was developed by the addition of 2,2′-azino-bis(3)-ethylbenzylthiazoline-6-sulfonic acid (ABTS) substrate and H2O2 (Sigma) and the absorbance measured at 415 nm with a Victor® V multilabel plate reader (PerkinElmer).
Normal human bladder smooth muscle cells were isolated by enzymatic digestion from macroscopically normal pieces of human bladder. Cells were expended in vitro by culture at 37° C. in a 5% CO2 atmosphere in RPMI 1640 supplemented with 10% fetal bovine serum, 15 mM HEPES, 2 mM L-glutamine, 100 U/ml penicillin, and […] of streptomycin and passage once a week by treatment with trypsin to detach cells followed by reseeding in a new culture flask. The first week of culture, the culture medium was supplemented with 0.5 ng/ml epidermal growth factor, 2 ng/ml fibroblast growth factor, and 5 μg/ml insulin.
Bladder smooth muscle cells trypsinized and seeded in microculture plates at a cell density of 3×10^4 cells per well in 100 μl were treated with analgesic solutions (50 μl/well) either alone or together carbachol (10-Molar, 50 μl/well), as an example of non-inflammatory stimuli, or lipopolysaccharide (LPS) of Salmonella typhimurium (1 μg/ml, 50 μl/well), as an example of […] stimuli. When no other effectors were added to the cells, 50 μl of RPMI 1640 without fetal bovine serum were added to the wells to adjust the final volume to 200 μl.
After 24 hours of culture, 150 μl of culture supernatants were collected, spun down for 2 min at 8,000 rpm at 4° C. to remove cells and debris and stored at −70° C. for analysis of Prostaglandin E2 (PGE2) responses by ELISA. Cells were fixed, permeabilized and blocked for detection of COX2 using a fluorogenic substrate. In selected experiment cells were stimulated 12 hours in vitro for analysis of COX2, PGE2 and cytokine responses.
COX2 and PGE2 responses were analyzed as described in Example 3. Cytokine responses were analyzed as described in Example 2.

[4] = LPS (10 μg/ml) plus analgesic 5 μM
[5] = LPS (10 μg/ml) plus analgesic 50 μM
[6] = analgesic alone, 5 nM, negative control 20.6
[7] = analgesic alone, 50 nM, negative control 20.6
[8] = analgesic alone, 500 nM, negative control 20.6
[9] = analgesic alone, 5 × 10^3 nM, negative control 20.6
[10] = analgesic alone, 5 × 10^4 nM, negative control 20.6
[11] = analgesic alone, 5 × 10^5 nM, negative control 20.6
[12] = analgesic plus LPS, analgesic 5 nM, LPS 5 ng/ml alone 77.8
[13] = analgesic plus LPS, analgesic 50 nM, LPS 5 ng/ml alone 77.8
[14] = analgesic plus LPS, analgesic 500 nM, LPS 5 ng/ml alone 77.8
[15] = analgesic plus LPS, analgesic 5 × 10^3 nM, LPS 5 ng/ml alone 77.8
[16] = analgesic plus LPS, analgesic 5 × 10^4 nM, LPS 5 ng/ml alone 77.8
[17] = analgesic plus LPS, analgesic 5 × 10^5 nM, LPS 5 ng/ml alone 77.8
[18] = analgesic alone, 5 × 10^6 nM, negative control 20.6
[19] = analgesic plus LPS, analgesic 5 × 10^6 nM, LPS 5 ng/ml alone 77.8

Compound	IL-6 (pg/ml) Subject 2 [1, 4]	IL-6 (pg/ml) Subject 1 [1, 4]	IL-6 (pg/ml) Subject 2 [1, 5]	IL-6 (pg/ml) Subject 1 [1, 5]	effect on expression of the co-stimulatory molecules at the highest dose ([2]; 5 × 10^6 nM)	effect on basal expression of co-stimulatory molecules CD40 and CD80 by macrophages [2]	% Positive CD40+CD80+ [2, 6]	% Positive CD40+CD80+ [2, 7]	% Positive CD40+CD80+ [2, 8]	% Positive CD40+CD80+ [2, 9]	% Positive CD40+CD80+ [2, 10]	% Positive CD40+CD80+ [2, 11]	% Positive CD40+CD80+ [2, 12]	% Positive CD40+CD80+ [2, 13]	% Positive CD40+CD80+ [2, 14]	% Positive CD40+CD80+ [2, 15]	% Positive CD40+CD80+ [2, 16]	% Positive CD40+CD80+ [2, 17]	TNFα (pg/ml) Subject 2 [3]	TNFα (pg/ml) Subject 1 [3]	other results
CC(C)Cc1ccc(C(C)C(=O)O)cc1 (stereo not shown) [Ibuprofen, ibuprofen]	2173 pg/mL	2063 pg/mL	1991 pg/mL	2021 pg/mL	enhance	inhibit	5.8%	4.9%	6.0%	7.9%	7.7%	6.4%	60.3%	63.7%	71.1%	72.9%	77.9%	67%	121 pg/mL	146 pg/mL	effect on the effect of carbachol and LPS on TNFα responses [3]: suppress
CC(=O)Nc1ccc(O)cc1 [Acetaminophen, N-acetyl-para-aminophenol]	2308 pg/mL	2012 pg/mL	1983 pg/mL	2018 pg/mL	enhance	inhibit	7.5%	9.5%	8.3%	9.8%	12%	18%	62.1%	66.2%	66.8%	68.8%	72.4%	82.7%	164 pg/mL	138 pg/mL	% Positive CD40+CD80+ [2, 18]: 63%; % Positive CD40+CD80+ [2, 19]: 95.1%; effect on the effect of carbachol and LPS on TNFα responses [3]: suppress
CC(=O)Oc1ccccc1C(=O)O [Aspirin, Acetylsalicylic acid]	2089 pg/mL	2199 pg/mL	2010 pg/mL	1987 pg/mL	enhance	inhibit	7.5%	10.5%	8%	8.3%	10.3%	11%	65.7%	70.1%	75.8%	74.7%	78.7%	80%	142 pg/mL	110 pg/mL	% Positive CD40+CD80+ [2, 18]: 44%; % Positive CD40+CD80+ [2, 19]: 84.5%; effect on the effect of carbachol and LPS on TNFα responses [3]: suppress
